Measurements published in patent US10168342B2, “Lipid probes and uses thereof” (THE SCRIPPS RESEARCH INSTITUTE, priority 2015, dated 2019).
Like-named read-outs stand apart in the source and are kept apart here.

Legend:
[1] = target: AEA-DA lipid probe targets in Neuro2a cells (Mus musculus, UniProt Q9Z0V7)
[2] = target: T1, AEA-DA lipid probe targets in Neuro2a cells (Mus musculus, UniProt O88531)
T1 sequence (O88531 28-306): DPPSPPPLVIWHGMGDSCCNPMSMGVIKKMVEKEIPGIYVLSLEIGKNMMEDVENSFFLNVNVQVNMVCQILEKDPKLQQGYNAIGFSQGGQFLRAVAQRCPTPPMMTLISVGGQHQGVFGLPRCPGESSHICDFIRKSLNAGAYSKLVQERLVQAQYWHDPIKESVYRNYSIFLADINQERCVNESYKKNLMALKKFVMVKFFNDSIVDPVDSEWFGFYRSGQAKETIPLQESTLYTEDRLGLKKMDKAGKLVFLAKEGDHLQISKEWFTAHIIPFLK

[3] = target: T2, AEA-DA lipid probe targets in Neuro2a cells (Mus musculus, UniProt Q8CAQ8)
T2 sequence (Q8CAQ8 34-757): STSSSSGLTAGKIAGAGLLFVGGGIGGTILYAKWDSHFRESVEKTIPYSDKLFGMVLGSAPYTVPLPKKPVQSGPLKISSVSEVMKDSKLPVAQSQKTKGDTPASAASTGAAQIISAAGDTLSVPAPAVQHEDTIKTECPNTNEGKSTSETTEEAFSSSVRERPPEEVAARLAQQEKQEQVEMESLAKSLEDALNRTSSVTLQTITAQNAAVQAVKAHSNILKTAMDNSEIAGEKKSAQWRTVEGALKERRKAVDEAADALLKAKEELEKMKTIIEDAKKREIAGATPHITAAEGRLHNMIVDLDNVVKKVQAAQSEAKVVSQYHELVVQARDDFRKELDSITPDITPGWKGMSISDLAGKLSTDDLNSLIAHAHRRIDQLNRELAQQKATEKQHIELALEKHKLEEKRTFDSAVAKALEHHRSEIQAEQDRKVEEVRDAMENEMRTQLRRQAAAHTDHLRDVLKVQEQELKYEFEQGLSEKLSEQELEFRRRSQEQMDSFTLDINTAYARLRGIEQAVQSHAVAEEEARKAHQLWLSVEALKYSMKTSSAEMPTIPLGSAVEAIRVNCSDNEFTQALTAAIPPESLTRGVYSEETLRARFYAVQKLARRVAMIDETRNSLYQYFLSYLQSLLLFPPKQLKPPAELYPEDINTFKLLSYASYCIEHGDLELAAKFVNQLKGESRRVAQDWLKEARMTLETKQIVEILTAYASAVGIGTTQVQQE

[4] = target: AEA-DA lipid probe targets in Neuro2a cells (Mus musculus, UniProt P70699)
Sequence of AEA-DA lipid probe targets in Neuro2a cells (Mus musculus, UniProt P70699) (P70699 70-953): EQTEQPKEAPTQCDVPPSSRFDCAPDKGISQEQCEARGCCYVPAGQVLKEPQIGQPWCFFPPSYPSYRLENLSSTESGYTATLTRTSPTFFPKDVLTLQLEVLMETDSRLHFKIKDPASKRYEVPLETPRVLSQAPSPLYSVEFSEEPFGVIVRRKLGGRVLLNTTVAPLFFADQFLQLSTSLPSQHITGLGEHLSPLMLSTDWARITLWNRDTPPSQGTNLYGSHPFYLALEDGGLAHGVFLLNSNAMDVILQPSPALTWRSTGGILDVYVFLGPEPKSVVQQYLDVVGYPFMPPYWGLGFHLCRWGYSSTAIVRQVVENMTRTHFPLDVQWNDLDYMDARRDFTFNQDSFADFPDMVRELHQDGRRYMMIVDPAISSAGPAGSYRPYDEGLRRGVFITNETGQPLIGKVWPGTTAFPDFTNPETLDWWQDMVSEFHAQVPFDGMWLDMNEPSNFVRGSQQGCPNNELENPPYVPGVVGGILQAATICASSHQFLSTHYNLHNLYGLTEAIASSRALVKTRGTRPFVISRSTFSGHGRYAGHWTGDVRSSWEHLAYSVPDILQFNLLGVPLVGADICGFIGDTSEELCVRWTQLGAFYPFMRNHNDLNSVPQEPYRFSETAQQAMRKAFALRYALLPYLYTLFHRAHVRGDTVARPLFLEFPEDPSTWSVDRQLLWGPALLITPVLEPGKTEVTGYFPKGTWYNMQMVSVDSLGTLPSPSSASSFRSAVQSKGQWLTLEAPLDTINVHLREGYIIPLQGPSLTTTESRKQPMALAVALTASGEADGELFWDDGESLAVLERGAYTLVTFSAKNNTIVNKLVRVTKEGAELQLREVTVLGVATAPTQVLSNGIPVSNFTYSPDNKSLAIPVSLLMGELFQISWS

[5] = target: T3, AEA-DA lipid probe targets in Neuro2a cells (Mus musculus, UniProt O89023)
T3 sequence (O89023 195-562): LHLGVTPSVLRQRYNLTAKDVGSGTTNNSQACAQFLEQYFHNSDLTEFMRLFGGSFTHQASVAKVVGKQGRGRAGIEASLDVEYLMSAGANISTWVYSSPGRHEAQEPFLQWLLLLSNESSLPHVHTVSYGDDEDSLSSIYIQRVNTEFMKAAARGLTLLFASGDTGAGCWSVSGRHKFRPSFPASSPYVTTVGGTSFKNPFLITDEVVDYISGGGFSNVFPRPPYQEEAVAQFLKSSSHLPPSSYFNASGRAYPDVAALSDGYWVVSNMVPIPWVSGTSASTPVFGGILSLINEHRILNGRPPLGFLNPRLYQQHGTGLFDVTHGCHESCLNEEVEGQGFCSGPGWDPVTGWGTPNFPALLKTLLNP

[6] = target: AEA-DA lipid probe targets in Neuro2a cells (Mus musculus, UniProt Q91V04)
Sequence of AEA-DA lipid probe targets in Neuro2a cells (Mus musculus, UniProt Q91V04) (Q91V04 whole entry): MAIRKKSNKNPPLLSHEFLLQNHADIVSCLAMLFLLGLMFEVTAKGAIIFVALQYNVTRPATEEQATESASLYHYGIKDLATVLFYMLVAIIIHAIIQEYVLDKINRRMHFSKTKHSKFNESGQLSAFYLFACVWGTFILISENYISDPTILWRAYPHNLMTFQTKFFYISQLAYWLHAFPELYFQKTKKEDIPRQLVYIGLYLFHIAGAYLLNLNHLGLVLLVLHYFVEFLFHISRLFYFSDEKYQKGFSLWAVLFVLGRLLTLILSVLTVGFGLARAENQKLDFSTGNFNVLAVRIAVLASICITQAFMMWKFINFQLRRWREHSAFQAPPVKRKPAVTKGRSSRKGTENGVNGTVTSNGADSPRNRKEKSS

[7] = target: T4, AEA-DA lipid probe targets in Neuro2a cells (Mus musculus, UniProt Q99P72)
T4 sequence (Q99P72 1-1162): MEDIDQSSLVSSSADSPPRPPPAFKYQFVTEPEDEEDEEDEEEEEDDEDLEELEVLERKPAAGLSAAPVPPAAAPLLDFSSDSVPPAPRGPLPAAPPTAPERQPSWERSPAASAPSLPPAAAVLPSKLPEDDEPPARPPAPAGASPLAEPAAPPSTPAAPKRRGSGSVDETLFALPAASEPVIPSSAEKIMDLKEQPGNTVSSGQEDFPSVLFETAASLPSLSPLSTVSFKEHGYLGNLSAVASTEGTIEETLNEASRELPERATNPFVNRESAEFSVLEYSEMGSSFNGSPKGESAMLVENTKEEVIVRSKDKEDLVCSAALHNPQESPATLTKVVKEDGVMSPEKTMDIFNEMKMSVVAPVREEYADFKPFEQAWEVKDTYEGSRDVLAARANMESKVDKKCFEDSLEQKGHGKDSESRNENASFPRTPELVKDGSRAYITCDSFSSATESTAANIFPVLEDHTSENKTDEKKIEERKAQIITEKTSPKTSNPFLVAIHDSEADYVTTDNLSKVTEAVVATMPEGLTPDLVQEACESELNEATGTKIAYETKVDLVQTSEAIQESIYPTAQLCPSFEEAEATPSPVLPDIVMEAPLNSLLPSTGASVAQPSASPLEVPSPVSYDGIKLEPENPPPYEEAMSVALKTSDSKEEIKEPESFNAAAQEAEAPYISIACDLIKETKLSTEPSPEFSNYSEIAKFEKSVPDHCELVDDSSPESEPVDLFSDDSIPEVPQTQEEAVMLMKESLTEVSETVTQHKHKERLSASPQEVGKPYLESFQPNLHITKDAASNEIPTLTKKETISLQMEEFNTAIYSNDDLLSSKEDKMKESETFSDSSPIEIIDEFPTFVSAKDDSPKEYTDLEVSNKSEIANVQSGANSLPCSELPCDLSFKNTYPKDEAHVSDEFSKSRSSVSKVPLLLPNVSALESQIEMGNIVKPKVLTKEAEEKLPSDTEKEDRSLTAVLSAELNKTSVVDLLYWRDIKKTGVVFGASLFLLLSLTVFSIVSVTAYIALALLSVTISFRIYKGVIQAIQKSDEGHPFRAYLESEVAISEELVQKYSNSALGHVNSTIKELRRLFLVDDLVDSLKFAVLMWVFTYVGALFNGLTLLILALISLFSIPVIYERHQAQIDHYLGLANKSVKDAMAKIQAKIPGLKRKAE

Sequence of AEA-DA lipid probe targets in Neuro2a cells (Mus musculus, UniProt Q9Z0V7) (Q9Z0V7 whole entry): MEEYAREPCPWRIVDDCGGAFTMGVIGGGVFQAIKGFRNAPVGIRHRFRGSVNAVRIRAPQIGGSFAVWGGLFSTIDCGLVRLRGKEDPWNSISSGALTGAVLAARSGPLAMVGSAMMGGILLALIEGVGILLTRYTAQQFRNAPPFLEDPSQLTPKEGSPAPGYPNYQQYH

Compound: CCCCC/C=C\C/C=C\C/C=C\C/C=C\CCCC(=O)NCCO [AEA, anandamide, reference compound]
- SILAC ratio, Timm17b ([1]; competitor 200 μM): 1.6
- SILAC ratio Ppt1 ([2]; competitor 200 μM): 1.1
- SILAC ratio Immt ([3]; competitor 200 μM): 1.2
- SILAC ratio Gaa ([4]; competitor 200 μM): 1.4
- SILAC ratio Tpp1 ([5]; competitor 200 μM): 1.5
- SILAC ratio, Tram1 ([6]; competitor 200 μM): 2.9
- SILAC ratio, Rtn4 ([7]; competitor 200 μM): 1.8

Compound: O=C(/C=C/c1cccnc1)NCCCCC1CCN(C(=O)c2ccccc2)CC1 [FK-866, reference compound]
- SILAC ratio, Timm17b ([1]; competitor 25 μM): 1.2
- SILAC ratio Ppt1 ([2]; competitor 25 μM): 0.8
- SILAC ratio Immt ([3]; competitor 25 μM): 1.1
- SILAC ratio Gaa ([4]; competitor 25 μM): 1.1
- SILAC ratio Tpp1 ([5]; competitor 25 μM): 1.0
- SILAC ratio, Tram1 ([6]; competitor 25 μM): 1.2
- SILAC ratio, Rtn4 ([7]; competitor 25 μM): 1.1

Compound: CN1CCN(C(=O)c2c(-c3ccccc3)c3cc([N+](=O)[O-])ccc3n2C)CC1 [KML110, (1-Methyl-5-nitro-3-phenyl-1H-indol-2-yl)(4-methylpiperazin-1-yl)methanone]
- SILAC ratio, Timm17b ([1]; competitor 25 μM): 1.8
- SILAC ratio Ppt1 ([2]; competitor 25 μM): 1.2
- SILAC ratio Immt ([3]; competitor 25 μM): 1.3
- SILAC ratio Gaa ([4]; competitor 25 μM): 1.6
- SILAC ratio Tpp1 ([5]; competitor 25 μM): 1.5
- SILAC ratio, Tram1 ([6]; competitor 25 μM): 1.7
- SILAC ratio, Rtn4 ([7]; competitor 25 μM): 1.4

Compound: CN1CCN(C(=O)c2[nH]c3ccc([N+](=O)[O-])cc3c2-c2ccccc2)CC1 [MJN228, (4-Methylpiperazin-1-yl)(5-nitro-3-phenyl-1H-indol-2-yl)methanone]
- SILAC ratio, Timm17b ([1]; competitor 10 μM): 1.3
- SILAC ratio, Timm17b ([1]; competitor 25 μM): 1.5
- SILAC ratio, Timm17b ([1]; competitor 50 μM): 2.2
- SILAC ratio, Timm17b ([1]; competitor 100 μM): 3.6
- SILAC ratio Ppt1 ([2]; competitor 10 μM): 1.5
- SILAC ratio Ppt1 ([2]; competitor 25 μM): 1.5
- SILAC ratio Ppt1 ([2]; competitor 50 μM): 2.1
- SILAC ratio Ppt1 ([2]; competitor 100 μM): 4.3
- SILAC ratio Immt ([3]; competitor 10 μM): 1.1
- SILAC ratio Immt ([3]; competitor 25 μM): 1.2
- SILAC ratio Immt ([3]; competitor 50 μM): 1.1
- SILAC ratio Immt ([3]; competitor 100 μM): 1.4
- SILAC ratio Gaa ([4]; competitor 10 μM): 1.0
- SILAC ratio Gaa ([4]; competitor 25 μM): 1.2
- SILAC ratio Gaa ([4]; competitor 50 μM): 1.4
- SILAC ratio Gaa ([4]; competitor 100 μM): 1.2
- SILAC ratio Tpp1 ([5]; competitor 10 μM): 1.4
- SILAC ratio Tpp1 ([5]; competitor 25 μM): 1.4
- SILAC ratio Tpp1 ([5]; competitor 50 μM): 1.8
- SILAC ratio Tpp1 ([5]; competitor 100 μM): 2.0
- SILAC ratio, Tram1 ([6]; competitor 10 μM): 1.3
- SILAC ratio, Tram1 ([6]; competitor 25 μM): 1.8
- SILAC ratio, Tram1 ([6]; competitor 50 μM): 1.9
- SILAC ratio, Tram1 ([6]; competitor 100 μM): 5.4
- SILAC ratio, Rtn4 ([7]; competitor 10 μM): 1.0
- SILAC ratio, Rtn4 ([7]; competitor 25 μM): 1.3
- SILAC ratio, Rtn4 ([7]; competitor 50 μM): 1.2
- SILAC ratio, Rtn4 ([7]; competitor 100 μM): 1.4

Compound: C=CCN(C)CCCCCCOc1ccc(C(=O)c2ccc(Br)cc2)c(F)c1 [Ro 48-8071, reference compound]
- SILAC ratio, Timm17b ([1]; competitor 25 μM): 2.8
- SILAC ratio Ppt1 ([2]; competitor 25 μM): 1.6
- SILAC ratio Immt ([3]; competitor 25 μM): 1.0
- SILAC ratio Gaa ([4]; competitor 25 μM): 0.5
- SILAC ratio Tpp1 ([5]; competitor 25 μM): 0.8
- SILAC ratio, Tram1 ([6]; competitor 25 μM): 1.8
- SILAC ratio, Rtn4 ([7]; competitor 25 μM): 1.0
